From patent US5620676A, “Biologically active ATP analogs” (priority 1995, dated 1997)
Entries after “also recorded” stand apart in the source; their conditions may differ. Where two headings read alike, the source gives them in different places.

Legend:
[1] = tested on: P2Y receptor (aorta endothelium); assay: Relaxation of noradrenalin-contracted rabbit aorta; settings: for activity/potency/selectivity in words, aorta: rabbit aorta endothelial P2Y receptor; for relaxation pD2, aorta: rabbit aorta, log molar units
[2] = molecular target: T1, P2Y receptor (turkey erythrocyte membranes) (Meleagris gallopavo, UniProt P49652); assay: Stimulation of phospholipase C (inositol phosphate formation) in turkey erythrocyte membranes; assay type: biochemical; settings: for EC50 / activity/potency in words, turkey erythrocyte: turkey erythrocyte membranes; for EC50: mean ± S.E.M. for at least 2 determinations, read-out: phosphatidyl inositol metabolism (K0.5, nM) erythrocyte; for fold less potent than ATP, turkey erythrocyte: relative to ATP
T1 construct: from tissue; host or cells: washed turkey erythrocytes, ghosts prepared by hypotonic lysis
T1 sequence (P49652 whole entry): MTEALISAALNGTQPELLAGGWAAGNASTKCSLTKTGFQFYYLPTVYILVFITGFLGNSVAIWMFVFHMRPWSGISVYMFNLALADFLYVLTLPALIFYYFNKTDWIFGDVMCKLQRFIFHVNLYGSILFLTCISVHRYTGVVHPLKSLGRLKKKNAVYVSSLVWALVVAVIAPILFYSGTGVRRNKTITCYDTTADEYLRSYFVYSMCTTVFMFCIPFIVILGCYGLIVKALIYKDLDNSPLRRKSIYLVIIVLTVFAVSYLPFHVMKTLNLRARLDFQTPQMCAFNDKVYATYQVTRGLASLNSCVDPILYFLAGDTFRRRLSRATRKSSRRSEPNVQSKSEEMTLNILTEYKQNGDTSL
In short: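 Erythrocytes were labelled 18-24 h at 37 °C with [3H]myoinositol, and ghosts were made by hypotonic lysis. Ghosts (≈175 μg protein) were incubated 5 min at 30 °C in Hepes buffer pH 7.0 with 1 μM GTPγS and nucleotide analogs. Total [3H]inositol phosphates were purified by anion exchange; K0.5 averaged from 3-8 dose-response curves.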

[3] = tested on: P2X and P2Y receptors; assay: Overall activity in the seven P2X and P2Y preparations
[4] = tested on: P2X receptors; assay: Overall activity in P2X receptor systems
[5] = molecular target: T2, P2Y receptor (taenia coli) (Cavia porcellus, UniProt P59902); assay: Relaxation of carbachol-contracted guinea pig taenia coli
T2 construct: Relaxant responses mediated via P2Y receptors were examined in guinea pig taenia coli; from tissue; host or cells: guinea pig taenia coli (carbachol-contracted)
T2 sequence (P59902 whole entry): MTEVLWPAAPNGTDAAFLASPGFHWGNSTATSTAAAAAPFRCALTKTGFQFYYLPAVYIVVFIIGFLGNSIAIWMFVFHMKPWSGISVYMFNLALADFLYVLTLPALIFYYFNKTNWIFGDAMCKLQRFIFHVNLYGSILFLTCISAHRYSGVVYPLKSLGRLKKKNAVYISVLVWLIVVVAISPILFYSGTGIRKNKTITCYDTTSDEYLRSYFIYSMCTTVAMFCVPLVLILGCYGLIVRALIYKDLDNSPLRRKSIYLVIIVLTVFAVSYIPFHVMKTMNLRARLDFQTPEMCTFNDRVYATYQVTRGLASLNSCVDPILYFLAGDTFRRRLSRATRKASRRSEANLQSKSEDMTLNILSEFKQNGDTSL
In short: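 Guinea pig taenia coli precontracted with 50 nM carbachol; relaxation to applied P2Y agonists expressed as percentage relaxation against negative log molar agonist concentration.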

[6] = tested on: P2Y receptors; assay: Overall activity in P2Y receptor systems
Protocol: Phospholipase C activity: Stimulation of inositol phosphate formation by compounds of the present invention was measured in turkey erythrocyte membranes as described by Harden et al., supra and Boyer et al., supra. The K0.5 values were averaged from 3-8 independently determined dose-response curves for each compound. Briefly, one ml of washed turkey erythrocytes was incubated in inositol-free medium (DMEM; Gibco) with 0.5-1 mCi of 2-[^3 H]myoinositol (20 Ci/mmol; American Radiolabeled Chemicals Inc., St. Louis, Mo.)for 18-24 h in a humidified atmosphere of 95% air 5% CO2 at 37° C. Erythrocyte ghosts were prepared by rapid lysis in hypotonic buffer (5 mM sodium phosphate, pH 7.4, 5 mM MgCl2, 1 mM EGTA) as described by Boyer et al., supra. Phospholipase C activity was measured in 25 μl of [^3 H]inositol-labeled ghosts (≈175 μg of protein, 200-500,000 cpm/assay) in a medium containing 424 μM CaC12, 0.91 mM MgSO4, 2 mM EGTA, 115 mM KCl, 5 mM KH2 PO4, and 10 mM Hepes, pH 7.0. Assay (100 μl or 200 μl final volume) contained 1 μM GTPγS and the indicated concentrations of nucleotide analogs. Ghosts were incubated at 30° C. for 5 min, and total [^3 H]inositol phosphates were quantitated after purification by anion exchange chromatography according to Harden et al. (supra) and Boyer et al. (supra).
Muscular relaxation/contraction: Relaxant responses mediated via P2Y receptors were examined in guinea pig taenia coli, rabbit aorta, and rabbit mesenteric artery, as described by Hoyle et al. (Br. J. Pharmacol., 107, 367-374 (1992a)), Burnstock et al., (Br. J. Pharmacol., 90, 383-391 (1987a)), and Rubino et al., (Eur. J. Pharmacol., 212, 237-240 (1992)). Contractile responses mediated via P2X receptors were examined in the guinea pig urinary bladder and vas deferens, and rabbit saphenous artery, also using standard methods (see Hoyle et al., supra., 1992; Hoyle et al., Br. J. Pharmacol., 99, 617-621 (1990); and Burnstock et al., Br. J. Pharmacol., 90, 111-120 (1987b)).

[7] = tested on: P2Y receptor (mesenteric artery); assay: Relaxation of rabbit mesenteric artery
[8] = molecular target: T3, adenylyl cyclase linked P2Y receptor (C6 rat glioma cells) (Rattus norvegicus, UniProt Q9EPX4); assay: Inhibition of adenylyl cyclase in C6 rat glioma cells; assay type: cell-based; settings: versus phospholipase C linked receptor
T3 construct: endogenous in cells; host or cells: C6 rat glioma cells
T3 sequence (Q9EPX4 whole entry): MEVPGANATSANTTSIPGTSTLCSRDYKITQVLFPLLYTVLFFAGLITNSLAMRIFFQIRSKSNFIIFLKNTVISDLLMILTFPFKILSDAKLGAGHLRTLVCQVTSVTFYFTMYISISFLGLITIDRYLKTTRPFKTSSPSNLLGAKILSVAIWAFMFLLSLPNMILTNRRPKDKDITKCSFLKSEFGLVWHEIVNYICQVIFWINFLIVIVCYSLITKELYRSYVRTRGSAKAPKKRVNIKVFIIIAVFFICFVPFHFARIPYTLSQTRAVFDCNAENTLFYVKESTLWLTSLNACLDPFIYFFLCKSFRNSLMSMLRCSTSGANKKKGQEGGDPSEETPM
Protocol: This example illustrates the inhibition of adenylyl cyclase activity in C6 rat glioma cells, as a function of the presence of certain ATP analogs in the medium in which the C6 cells were cultured.
Cells were labelled by incubation for 2 hours in the presence of 1 to 2 mCi of tritiated adenine/ml in the medium. Cells were washed twice with HEPES (20 mM, pH 7.5)-buffered Eagle's medium and then preincubated for 10 minutes at 37° C. with fresh medium containing 200 μM 3-isobutyl-1-methylxanthine. Agonist incubations were initiated by the simultaneous addition of 10 μM isoproterenol and various concentrations of nucleotides. The reactions were stopped after 10 minutes of aspiration of the nucleotide-containing medium and addition of 1 ml of ice-cold 5% trichloroacetic acid.

[9] = listed as 8-(6-Aminohexylamino)ATP
[10] = listed as 8-(6-amino-hexylamino)ATP
[11] = listed as adenosine-N1-oxide triphosphate

Row | SMILES | EC50 [2] [nM] | overall activity in words, all preparations [3] | overall activity in words, P2X systems [4] | fold less potent than ATP, turkey erythrocyte [2] | activity/potency in words, turkey erythrocyte [2] | relaxation pD2, aorta [1] | overall activity in words, P2Y systems [6] | activity/potency in words, mesenteric artery [7] | activity/potency/selectivity in words, aorta [1] | EC50 [5] [nM] | other results
1 | CC1(C)O[C@@H]2[C@H](O1)[C@@H](COP(=O)(O)O)O[C@H]2n1cnc2c(N)ncnc21 [2',3'-Isopropylidene-AMP, 2',3'-Isopropylidene AMP] | > 100000 | Neither was particularly active at either P2X or P2Y receptors | inactive in the P2X receptor systems |  |  |  |  |  |  |  | activity/potency/selectivity in words, aorta ([1]; listed as 2',3'-isopropylidene-AMP): a potent agonist at the rabbit endothelial P2Y receptor; activity/potency/selectivity in words, aorta ([1]; listed as Isopropylidene-AMP): specific for the aortic endothelial P2Y receptor
2 | Nc1ncnc2c1ncn2[C@H]1C[C@H](O)[C@@H](COP(=O)(O)OP(=O)(O)OP(=O)(O)O)O1 [2'-Deoxy-ATP, 2'-deoxy-ATP, reference compound] | 19200 | inactive in the five other preparations | inactive in the P2X receptor systems | 7 -fold | seven times less potent than ATP in the turkey erythrocyte |  |  |  |  |  | activity/potency in words, taenia coli ([5]; guinea pig taenia coli): roughly equipotent with ATP in the taenia coli; activity/potency in words, taenia coli ([5]; guinea pig taenia coli, listed as 2'-deoxy-ATP): selectivity; EC50 ([5]; guinea pig taenia coli, log molar units, read-out: relaxation pD2, taenia coli (converted)): 2510 nM
3 | NCCCCCCNc1nc2c(N)ncnc2n1[C@@H]1O[C@H](COP(=O)(O)OP(=O)(O)OP(=O)(O)O)[C@@H](O)[C@H]1O [8-(6-Aminohexylamino)-ATP, 8-(6-aminohexylamino)-ATP, reference compound] | 8200 ± 1200 |  | inactive in the P2X receptor systems |  |  | 7.3 | specific for P2Y receptors | no activity at the mesenteric artery P2Y receptor |  |  | activity/potency/selectivity in words, aorta [1, 9]: selective for the endothelial receptors of the rabbit aorta versus the mesenteric artery and taenia coli; activity/potency/selectivity in words, aorta [1, 10]: much more potent than ATP; activity/potency/selectivity in words, aorta ([1]; listed as 8-(6-aminohexylamino)ATP): high selectivity; activity/potency in words, turkey erythrocyte [2, 9]: somewhat active in turkey erythrocytes; activity/potency in words, turkey erythrocyte [2, 10]: less potent than ATP at the turkey erythrocyte P2Y receptor
4 | Nc1c2ncn([C@@H]3O[C@H](COP(=O)(O)OP(=O)(O)OP(=O)(O)O)[C@@H](O)[C@H]3O)c2nc[n+]1[O-] [Adenosine N1-oxide 5'-triphosphate, adenosine N1-oxide 5'-triphosphate, reference compound] | 16900 |  | inactive in the P2X receptor systems |  | somewhat active in turkey erythrocytes | 6.7 | specific for P2Y receptors | no activity at the mesenteric artery P2Y receptor | selective for the endothelial receptors of the rabbit aorta versus the mesenteric artery and taenia coli | 12600 | activity/potency/selectivity in words, aorta [1, 11]: much more potent than ATP; activity/potency in words, turkey erythrocyte [2, 11]: less potent than ATP at the turkey erythrocyte P2Y receptor
5 | CNc1ncnc2c1ncn2[C@@H]1O[C@H](COP(=O)(O)OP(=O)(O)OP(=O)(O)O)[C@@H](O)[C@H]1O [N^6 -Me-ATP, N^6 -Methyl-adenosine 5'-triphosphate] | 19000 |  |  | 7 -fold |  |  | inactive in vascular smooth muscle | not activated at concentrations of the N^6 -methyl derivative as high as 10^-5 M | significantly less activated | 1580 | selectivity for the adenylyl cyclase linked receptor, in words [8]: slightly selective of the phospholipase C-linked receptor; activity/potency in words, taenia coli ([5]; guinea pig taenia coli, listed as N^6 -methyl ATP): equipotent with ATP in the taenia coli; activity/potency in words, taenia coli ([5]; guinea pig taenia coli, listed as N^6 -methylATP): selectivity; also recorded: at an equal level as if activated by ATP itself; overall activity in words, P2X systems ([4]; listed as N^6 -methyl ATP): inactive in P2X preparations; overall activity in words, P2X systems ([4]; listed as N^6 -methyl-ATP): inactive in the P2X receptor systems
